Where a name gives a salt, the structure may show the parent alone. Read-outs that look alike come from different tables or passages of the source. Values belong to the compound of their own block, whether it stands above or below them.
What was measured:
PARP-2 = PARP-2 (Homo sapiens (Human), UniProt Q9UGN5); test: Fluorescence polarization displacement assay with probe of formula (IP), PARP-2; type: binding; conditions: probe P1
Description: (§1) Affinity evaluation of the tested compounds and their selectivity with respect to the different PARP isoforms of interest was assessed in a displacement assay.
(§2) b) comparing the polarization signal generated in the absence of the test compound with the one generated in the presence of different concentrations of the test compound, and
(§3) c) evaluating the ability of the test compound to displace the compound of formula (IP) as defined above indicated from a decreased fluorescence polarization level.
(§4) The 5H-phenanthridin-6-one-derived probe (IP) was selected for its capability of binding to the PARP proteins, both encompassing full-length native proteins and fragments thereof.
(§5) The polarization signal can be measured, e.g., by a plate reader such as the Saphire2 (Tecan). Data analysis was performed, e.g., by using the Dynafit software. Displacement data were also fitted, e.g., by using Excel spreadsheet (Microsoft Inc. Seattle, USA) to a four parameter logistic model (4PL), or Hill-Slope model. The assay was used to test compounds of the present invention. The displacement ability of the test compounds of formula (I) is in correlation with the compounds affinity for the NAD pocket of the enzyme.

PARP-1 = PARP-1 (Homo sapiens (Human), UniProt P09874); test: Fluorescence polarization displacement assay with probe of formula (IP), PARP-1; type: binding; conditions: for DC50: probe P1
Description: as §1, §2, §3, §4, §5

[1] = test system: hydrogen peroxide induced PAR formation in HeLa cells; test: PAR assay: inhibition of hydrogen peroxide induced PAR formation in HeLa cells; conditions: Homo sapiens, read-out: PAR assay (IC50 μM)
[2] = Pharmacokinetics and oral bioavailability in the mouse; type: in vivo; conditions: for F on AUC: 10 mg/kg, ratio of oral to IV dose-normalized AUC; for clearance / Vd / AUC / Cmax / half-life: male, Balb Nu/Nu, plasma, mean value; for clearance / Vd: 10 mg/kg intravenous bolus; for clearance: read-out: Cl (IV bolus); for Vd: read-out: Vdss (IV bolus); for AUC / Cmax / half-life: 10 mg/kg oral; for half-life: read-out: T½ (oral) (converted)
PARP-3 = PARP-3 (Homo sapiens (Human), UniProt Q9Y6F1); test: Fluorescence polarization displacement assay with probe of formula (IP), PARP-3; type: binding
Description: as §1, §2, §3, §4, §5

[3] = test system: Capan-1 human pancreatic cancer tumors; test: In vivo efficacy as single agent, Capan-1 BRCA-2 mutated mouse model; conditions: 75 mg/kg oral daily; for Max TGI (%): single agent, Capan-1 xenograft; for Toxicity: body weight reduction, out of 7 mice treated
Excerpt: Balb, athymic Nu/Nu male mice, from Harlan (Italy), were maintained in agreement with the European Communities Council Directive no. 86/609/EEC concerning the protection of animals used for experimental or other scientific purposes, in cages with paper filter cover, food and bedding sterilized and acidified water. Fragments of Capan-1 human pancreatic cancer tumors were implanted subcutaneously. […] Each group included seven animals. The treatment started one day after randomization. Compound of formula (I) was administered by oral route as a methocel suspension at the indicated doses and times. Tumor dimension was measured regularly by calipers during the experiments and tumor mass was calculated as described in Simeoni M. et al., Cancer Res 64, 1094-1101 (2004).

BRCA-mutated cancer = conditions: 19 patients with BRCA mutations and breast, ovarian and prostate cancer, phase I; cited from earlier work
[4] = probe P1; read-out: PARP-3 (DC50 μM)

Sequence of PARP-3 (Q9Y6F1 whole entry): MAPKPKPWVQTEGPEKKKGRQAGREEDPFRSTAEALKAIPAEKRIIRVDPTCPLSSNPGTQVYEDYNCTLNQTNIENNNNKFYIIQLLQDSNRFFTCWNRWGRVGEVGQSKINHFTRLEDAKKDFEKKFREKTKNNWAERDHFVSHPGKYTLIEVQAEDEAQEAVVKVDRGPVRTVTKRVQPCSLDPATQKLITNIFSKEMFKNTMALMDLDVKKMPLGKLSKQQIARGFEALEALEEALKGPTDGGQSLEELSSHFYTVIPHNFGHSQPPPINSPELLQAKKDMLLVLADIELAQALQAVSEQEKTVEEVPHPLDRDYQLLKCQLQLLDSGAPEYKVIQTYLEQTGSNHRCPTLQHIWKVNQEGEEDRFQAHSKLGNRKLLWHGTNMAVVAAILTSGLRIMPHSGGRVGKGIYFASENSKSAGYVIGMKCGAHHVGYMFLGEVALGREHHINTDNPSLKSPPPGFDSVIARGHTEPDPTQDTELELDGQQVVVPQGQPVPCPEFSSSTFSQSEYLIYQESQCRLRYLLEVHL
Sequence of PARP-2 (Q9UGN5 whole entry): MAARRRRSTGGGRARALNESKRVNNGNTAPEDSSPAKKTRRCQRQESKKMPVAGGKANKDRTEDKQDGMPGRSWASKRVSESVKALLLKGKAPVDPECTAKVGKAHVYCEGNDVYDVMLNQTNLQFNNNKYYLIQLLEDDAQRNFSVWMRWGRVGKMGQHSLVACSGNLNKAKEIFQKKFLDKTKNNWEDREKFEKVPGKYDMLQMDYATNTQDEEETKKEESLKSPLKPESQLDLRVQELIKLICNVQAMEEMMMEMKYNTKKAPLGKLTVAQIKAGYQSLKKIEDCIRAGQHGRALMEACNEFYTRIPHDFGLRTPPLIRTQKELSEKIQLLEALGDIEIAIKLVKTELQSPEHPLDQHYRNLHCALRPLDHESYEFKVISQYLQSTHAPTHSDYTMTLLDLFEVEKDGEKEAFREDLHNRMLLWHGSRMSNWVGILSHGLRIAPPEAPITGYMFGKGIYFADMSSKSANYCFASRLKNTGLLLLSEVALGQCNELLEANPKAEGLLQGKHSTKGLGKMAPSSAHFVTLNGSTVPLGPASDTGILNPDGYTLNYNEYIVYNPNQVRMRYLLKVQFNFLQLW
Sequence of PARP-1 (P09874 whole entry): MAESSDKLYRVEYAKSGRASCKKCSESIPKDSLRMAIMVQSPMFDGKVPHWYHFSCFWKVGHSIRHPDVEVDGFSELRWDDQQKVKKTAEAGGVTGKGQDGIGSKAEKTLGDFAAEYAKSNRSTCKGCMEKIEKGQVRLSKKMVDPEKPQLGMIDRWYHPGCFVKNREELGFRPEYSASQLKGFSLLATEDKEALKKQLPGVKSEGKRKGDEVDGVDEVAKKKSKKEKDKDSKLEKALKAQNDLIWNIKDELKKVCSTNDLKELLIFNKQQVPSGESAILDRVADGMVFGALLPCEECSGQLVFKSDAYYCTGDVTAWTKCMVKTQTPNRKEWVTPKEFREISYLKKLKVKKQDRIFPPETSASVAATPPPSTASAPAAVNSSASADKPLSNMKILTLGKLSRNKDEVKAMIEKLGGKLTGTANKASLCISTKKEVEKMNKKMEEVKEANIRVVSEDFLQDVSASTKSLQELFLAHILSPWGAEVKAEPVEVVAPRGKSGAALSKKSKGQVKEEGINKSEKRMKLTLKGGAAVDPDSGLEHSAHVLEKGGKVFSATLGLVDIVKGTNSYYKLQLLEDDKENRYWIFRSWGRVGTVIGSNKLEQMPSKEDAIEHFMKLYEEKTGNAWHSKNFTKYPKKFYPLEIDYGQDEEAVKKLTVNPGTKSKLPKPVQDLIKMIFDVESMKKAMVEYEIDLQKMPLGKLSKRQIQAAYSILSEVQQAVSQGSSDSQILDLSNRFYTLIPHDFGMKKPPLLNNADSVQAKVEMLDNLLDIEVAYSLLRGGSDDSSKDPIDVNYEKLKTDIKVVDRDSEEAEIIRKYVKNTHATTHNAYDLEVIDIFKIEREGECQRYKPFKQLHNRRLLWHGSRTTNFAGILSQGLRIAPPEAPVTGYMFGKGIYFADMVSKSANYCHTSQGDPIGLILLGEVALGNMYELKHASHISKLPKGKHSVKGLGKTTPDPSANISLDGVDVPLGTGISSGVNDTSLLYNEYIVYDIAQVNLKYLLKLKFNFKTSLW

SMILES: NC(=O)c1cccc2c1C(=O)N(CCC1CCN(Cc3ccccc3)CC1)C2 [(31), 2-[2-(1-benzyl-piperidin-4-yl)-ethyl]-3-oxo-2,3-dihydro-1H-isoindole-4-carboxylic Acid Amide Hydrochloride]
- DC50 (PARP-2): > 10 µM
- DC50 (PARP-1): < 0.25 µM
- IC50 [1]: 0.2 µM

- IC50 [1]: 0.02 µM
- F on AUC [2]: 37%
- clearance [2]: 79.3 mL/min/kg
- Vd [2]: 2.51 L/kg
- AUC [2]: 2.13 µM·h
- Cmax [2]: 2.97 µM
- half-life [2]: 37.8 min
SMILES: NC(=O)c1cccc2c1C(=O)N(C1CCN(Cc3ccc[nH]3)CC1)C2 [(16), 3-oxo-2-[1-(1H-pyrrol-2-ylmethyl)-piperidin-4-yl]-2,3-dihydro-1H-isoindole-4-carboxylic Acid Amide]

- IC50 [1]: 0.011 µM
- F on AUC [2]: 57%
- clearance [2]: 81.8 mL/min/kg
- Vd [2]: 2.68 L/kg
- AUC [2]: 3.22 µM·h
- Cmax [2]: 2.29 µM
- half-life [2]: 53.4 min
SMILES: NC(=O)c1cccc2c1C(=O)N(C1CCN(Cc3ccoc3)CC1)C2 [(14), 2-(1-furan-3-ylmethyl-piperidin-4-yl)-3-oxo-2,3-dihydro-1H-isoindole-4-carboxylic Acid Amide]

SMILES: NC(=O)c1cc(F)cc2c1C(=O)N(C1CCN(C3CCCCC3)CC1)C2 [(29), 2-(1-cyclohexyl-piperidin-4-yl)-6-fluoro-3-oxo-2,3-dihydro-1H-isoindole-4-carboxylic acid amide]
- DC50 (PARP-2): 2.92 µM
- Kd (PARP-1): < 0.01 µM
- DC50 (PARP-1): < 0.25 µM
- IC50 [1]: 0.5 µM
- DC50 (PARP-3; read-out: PARP-3 (DC50 μM); probe P1): 1 µM

SMILES: NC(=O)c1cccc2c1C(=O)N(CCCN1CCc3ccccc3C1)C2 [(19), 2-[3-(3,4-dihydro-1H-isoquinolin-2-yl)-propyl]-3-oxo-2,3-dihydro-1H-isoindole-4-carboxylic Acid Amide]
- Kd (PARP-1): < 0.03 µM
- DC50 (PARP-1): < 0.25 µM
- IC50 [1]: 0.33 µM

SMILES: CC1CCCC(C)N1CCCN1Cc2cccc(C(N)=O)c2C1=O (stereo not shown) [(27), 2-[3-(2,6-dimethyl-piperidin-1-yl)-propyl]-3-oxo-2,3-dihydro-1H-isoindole-4-carboxylic Acid Amide Hydrochloride]
- DC50 (PARP-2): > 10 µM

SMILES: NC(=O)c1cccc2c1C(=O)N(CCCc1ccccc1)C2 [(17), 3-oxo-2-(3-phenyl-propyl)-2,3-dihydro-1H-isoindole-4-carboxylic Acid Amide]
- IC50 [1]: 1.51 µM

- DC50 (PARP-3; [4]): 5.48 µM
SMILES: NC(=O)c1cccc2c1C(=O)N(C1CCN(C3CCOCC3)CC1)C2 [(28), 3-ox-2-[1-(tetrahydro-pyran-4-yl)-piperidin-4-yl]-2,3-dihydro-1H-isoindole-4-carboxylic Acid Amide]

- IC50 [1]: 3.9 µM
SMILES: NC(=O)c1cccc2c1C(=O)N(C1CCN(Cc3ccco3)CC1)C2 [(12), 2-(1-furan-2-ylmethyl-piperidin-4-yl)-3-oxo-2,3-dihydro-1H-isoindole-4-carboxylic Acid Amide]

SMILES: NC(=O)c1cccc2c1C(=O)N(CCCN1CCN(c3ccccc3)CC1)C2 [(22), 3-oxo-2-[3-(4-phenyl-piperazin-1-yl)-propyl]-23-dihydro-1H-isoindole-4-carboxylic Acid Amide]
- DC50 (PARP-2): 2.12 µM
- Kd (PARP-1): < 0.03 µM
- DC50 (PARP-1): < 0.25 µM
- IC50 [1]: 0.4 µM

- DC50 (PARP-1): < 0.25 µM
- DC50 (PARP-3; [4]): 0.35 µM
SMILES: NC(=O)c1cccc2c1C(=O)N(C1CCN(Cc3ccccc3)CC1)C2 [(30), 2-(1-benzyl-piperidin-4-yl)-3-oxo-2,3-dihydro-1H-isoindole-4-carboxylic Acid Amide]

SMILES: NC(=O)c1cccc2c1C(=O)N(CCCN1CCCc3ccccc31)C2 [(20), 2-[3-(3,4-dihydro-2H-quinolin-1-yl)-propyl]-3-oxo-2,3-dihydro-1H-isoindole-4-carboxylic Acid Amide]
- DC50 (PARP-2): 0.58 µM
- Kd (PARP-2): 0.19 µM
- Kd (PARP-1): < 0.03 µM
- DC50 (PARP-1): < 0.25 µM
- IC50 [1]: 0.83 µM

- IC50 [1]: 1.4 µM
SMILES: NC(=O)c1cccc2c1C(=O)N(C1CCN(Cc3cccs3)CC1)C2 [(9), 3-oxo-2-(1-thiophen-2-ylmethyl-piperidin-4-yl)-2,3-dihydro-1H-isoindole-4-carboxylic Acid Amide]

SMILES: NC(=O)c1cccc2c1C(=O)N(C1CCN(Cc3ccccn3)CC1)C2 [(15), 3-oxo-2-(1-pyridin-2-ylmethyl-piperidin-4-yl)-2,3-dihydro-1H-isoindole-4-carboxylic Acid Amide]
- Max TGI (%) [3]: 54%
- Toxicity [3]: 0/7
- DC50 (PARP-3; [4]): 0.9 µM
- F on AUC [2]: 68%
- clearance [2]: 16.9 mL/min/kg
- Vd [2]: 0.79 L/kg
- AUC [2]: 19.2 µM·h
- Cmax [2]: 8.73 µM
- half-life [2]: 60.6 min

SMILES: NC(=O)c1cccc2c1C(=O)N(CCCN1CCC(Cc3ccccc3)CC1)C2 [(32), 2-[3-(4-benzyl-piperidin-1-yl)-propyl]-3-oxo-2,3-dihydro-1H-isoindole-4-carboxylic Acid Amide]
- IC50 [1]: 0.17 µM

SMILES: NC(=O)c1cc(F)cc2c1C(=O)N(CCCN1CCOCC1)C2 [(23), 6-Fluoro-2-(3-morpholin-4-yl-propyl)-3-oxo-2,3-dihydro-1H-isoindole-4-carboxylic Acid Amide]
- DC50 (PARP-2): 2 µM
- Kd (PARP-1): < 0.03 µM
- DC50 (PARP-1): < 0.25 µM
- IC50 [1]: 0.4 µM

- IC50 [1]: 0.11 µM
SMILES: NC(=O)c1cccc2c1C(=O)N(C1CCN(CC3CC3)CC1)C2 [(24), 2-(1-cyclopropylmethyl-piperidin-4-yl)-3-oxo-2,3-dihydro-1H-isoindole-4-carboxylic Acid Amide]

SMILES: O=C(c1cc(Cc2n[nH]c(=O)c3ccccc23)ccc1F)N1CCN(C(=O)C2CC2)CC1 [Olaparib]
- objective response rate (BRCA-mutated cancer): 47%

- DC50 (PARP-1): 0.28 µM
- IC50 [1]: 0.6 µM
SMILES: CN1CCN(CCCN2Cc3cccc(C(N)=O)c3C2=O)CC1 [(21), 2-[3-(4-methyl-piperazin-1-yl)-propyl]-3-oxo-2,3-dihydro-1H-isoindole-4-carboxylic Acid Amide]

- F on AUC [2]: 30%
- clearance [2]: 63.1 mL/min/kg
- Vd [2]: 1.54 L/kg
- AUC [2]: 2.51 µM·h
- Cmax [2]: 3.06 µM
- half-life [2]: 40.8 min
SMILES: NC(=O)c1cccc2c1C(=O)N(CCN1CCc3ccccc3C1)C2 [(3), 2-[2-(3,4-dihydro-1H-isoquinolin-2-yl)-ethyl]-3-oxo-2,3-dihydro-1H-isoindole-4-carboxylic Acid Amide]

SMILES: NC(=O)c1cccc2c1C(=O)N(C1CCN(C3CCCCC3)CC1)C2 [(11), 2-(1-cyclohexyl-piperidin-4-yl)-3-oxo-2,3-dihydro-1H-isoindole-4-carboxylic Acid Amide]
- DC50 (PARP-2): 2.53 µM
- Kd (PARP-2): 1.4 µM
- Kd (PARP-1): < 0.01 µM
- DC50 (PARP-1): < 0.25 µM
- IC50 [1]: 0.02 µM
- Max TGI (%) [3]: 42%
- Toxicity [3]: 0/7
- DC50 (PARP-3; [4]): 2.06 µM
- F on AUC [2]: 100%
- clearance [2]: 41.3 mL/min/kg
- Vd [2]: 4.47 L/kg
- AUC [2]: 20.4 µM·h
- Cmax [2]: 3.87 µM
- half-life [2]: 163 min

From US10800739B2, “4-carboxamido-isoindolinone derivatives as selective PARP-1 inhibitors” (NERVIANO MEDICAL SCIENCES S.r.l, priority 2012, dated 2020)
